From US11464787B2, “Composition comprising oleanolic acid acetate as active ingredient for preventing, alleviating, or treating renal toxicity induced by medicine” (Korea Research Institute of Bioscience and Biotechnology, priority 2016, dated 2022)

How the values were obtained:
peritoneal macrophages = assay: MTT assay cytotoxicity in mouse peritoneal macrophages; assay type: cell-based; conditions: for cell survival rate: maximum concentration of 1000 μg/ml, 24 hours
Method: For the isolation of peritoneal macrophage of mice, 3 ml of 3% thioglycollate medium was administered intraperitoneally to 5-6 week old ICR male mice (Oriental Bio, Seoul, Korea). After 3 days, 6 ml to 7 ml of PBS was administered intraperitoneally, followed by a massage of peritoneal cavity to collect the peritoneal fluid. The collected peritoneal fluid was centrifuged and suspended in RPMI (10% FBS, 1% antibiotics), transferred to a plate, and stabilized at 37° C. for 2 hours.
(§1) The absorbance thereof was measured at 570 nm.

HEK-293T cells = assay: MTT assay cytotoxicity in HEK-293T human embryonic kidney cells; conditions: for cell survival rate: HEK-293T, highest concentration of 1000 μg/ml, 24 hours
Method: HEK-293T cells, human embryonic kidney cells, were cultured in Dulbecco's modified eagle medium (Cat No. 12800-017, Gibco, USA) supplemented with heat-inactivated 10% FBS.
The survival rate of cultured cells was measured by MTT reduction method. As an MTT solution, formazan was formed by mitochondrial dehydrogenases in living cells to confirm cell viability. […] After 24 hours, 20 μl of MTT solution was added to each well, followed by further culturing for 2 hours. Then, the culture solution was removed, and 100 μl of dimethylsulfoxide was added thereto. The absorbance thereof was measured at 570 nm.

spleen cells = assay: MTT assay cytotoxicity in mouse spleen cells; assay type: cell-based; conditions: all concentrations (100, 300, and 600 μg/ml)
Method: For the isolation of mouse spleen cells, 5-6 week old ICR male mice (Oriental Bio, Seoul, Korea) were sacrificed with CO2 and then their spleen was aseptically extracted. The spleen was ground with a filter to separate single spleen cells, centrifuged using centrifugation, and erythrocytes were dissolved using ficoll. Cells from which erythrocytes had been removed were stabilized with RPMI (10% FBS, 1% antibiotics) at 37° C. for 2 hours.
as §1

[1] = tested on: cisplatin-induced nephrotoxicity; assay: Cisplatin-induced nephrotoxicity animal model: body weight, kidney weight, death rate, BUN; assay type: in vivo, C57BL/6 male mice
Method: (§2) For the experiment, the mice were kept under constant temperature (23±3° C.), humidity (55±15%) and light irradiation (7:00 to 19:00). After the purchase, the mice were stabilized in the SPF animal breeding room for 1 week and used in the experiment.
After the mouse sacrifice, the body weight was measured, the kidney was isolated, the blood was collected from the heart, and the blood urea nitrogen (BUN), a biochemical indicator related to nephrotoxicity, was measured. The collected mouse blood was centrifuged at 3000 rpm and 4° C. for 15 minutes using a centrifuge to separate the only serum, and the BUN was measured using an automatic analyzer (Fuji Dry-Chem NX500i, Tokyo, Japan).
The death rate was expressed as a percentage by dividing the number of mice killed in each group by the total number of mice.

TNF-α [2] = assay: Blood TNF-α by ELISA in cisplatin-induced nephrotoxicity model; assay type: in vivo, C57BL/6 male mice; conditions: cisplatin and oleanolic acid acetate (50 mg/Kg)-treated group, serum ELISA
Method: as §2
(§3) In order to measure inflammatory cytokines in the blood (TNF-α and IL-6), serum was separated and used from blood, and TNF-α and IL-6 were measured using a mouse ELISA kit (R&D system, Minneapolis, Minn., USA). ELISA color development was measured using a Varioskan™ LUX multimode microplate reader (Thermofisher, Sunnyvale, Calif., USA) at a wavelength of 450 nm.

IL-6 [3] = assay: Blood IL-6 by ELISA in cisplatin-induced nephrotoxicity model; assay type: in vivo, C57BL/6 male mice; conditions: cisplatin and oleanolic acid acetate (50 mg/Kg)-treated group, serum ELISA
Method: as §2, §3

TNF-α [4] = assay: Kidney tissue TNF-α mRNA expression by real-time PCR in cisplatin-induced nephrotoxicity model; assay type: in vivo, C57BL/6 male mice; conditions: cisplatin and oleanolic acid acetate (50 mg/Kg)-treated group
Method: as §2
(§4) After the mouse sacrifice, kidneys were separated and homogenized by adding Trizol reagent (Invitrogen, Carlsbad, Calif., USA). To this, chloroform was added to extract RNA, and isopropanol was added to precipitate. After the RNA precipitate was washed with 75% ethanol, the RNA concentration and purity were measured with a 2100 Bioanalyzer System (Agilent Technologies, Santa Clara, Calif., USA), and Taqman reverse transcription reagents kit (Applied Biosystems, Foster City) was used to synthesize cDNA. The expression level of inflammatory factors was measured by real-time PCR using SYBR Green PCR master mix kit (Applied Biosystem, Foster City, Calif., USA).
(§5) In order to examine the expression levels of TNF-α and IL-6, inflammatory cytokines, COX-2, a prostaglandin E2 (PGE2) synthase involved in increasing the vascular permeability of the inflammatory response, and MCP-1, an inflammatory chemokine, Real-time PCR was performed on each gene.

IL-6 [5] = assay: Kidney tissue IL-6 mRNA expression by real-time PCR in cisplatin-induced nephrotoxicity model; assay type: in vivo, C57BL/6 male mice; conditions: cisplatin and oleanolic acid acetate (50 mg/Kg)-treated group
Method: as §2, §4, §5

COX-2 = assay: Kidney tissue COX-2 mRNA expression by real-time PCR in cisplatin-induced nephrotoxicity model; assay type: in vivo, C57BL/6 male mice; conditions: cisplatin and oleanolic acid acetate (50 mg/Kg)-treated group
Method: as §2, §4, §5

MCP-1 = assay: Kidney tissue MCP-1 mRNA expression by real-time PCR in cisplatin-induced nephrotoxicity model; assay type: in vivo, C57BL/6 male mice; conditions: cisplatin and oleanolic acid acetate (50 mg/Kg)-treated group
Method: as §2, §4, §5

Row | SMILES | cytotoxicity (in words) (peritoneal macrophages) | cell survival rate (peritoneal macrophages) [%] | cell survival rate (HEK-293T cells) [%] | cell survival rate compared with oleanolic acid (in words) (spleen cells) | death rate ([1]; cisplatin 20 mg/kg i.p. and oleanolic acid acetate 50 mg/Kg orally, mice) [%] | BUN value ([1]; cisplatin and oleanolic acid acetate (50 mg/Kg oral)-treated group, serum, day 5, vs cisplatin group) | TNF-α in the blood (TNF-α [2]) | IL-6 in the blood (IL-6 [3]) | amount of mRNA expression of TNF-α (TNF-α [4]) | amount of mRNA expression of IL-6 (IL-6 [5]) | amount of mRNA expression of COX-2 (COX-2) | amount of mRNA expression of MCP-1 (MCP-1) | cytotoxicity (in words) (HEK-293T cells; human kidney cell lines, compared with oleanolic acid)
1 | CC1(C)CC[C@]2(C(=O)O)CC[C@]3(C)C(=CC[C@@H]4[C@@]5(C)CC[C@H](O)C(C)(C)[C@@H]5CC[C@]43C)[C@@H]2C1 [oleanolic acid] | cytotoxicity in a concentration-dependent manner | 41 | 27 | – | – | – | – | – | – | – | – | – | –
2 | CC(=O)O[C@H]1CC[C@@]2(C)C(CC[C@]3(C)[C@@H]2CC=C2[C@H]4CC(C)(C)CC[C@]4(C(=O)O)CC[C@]23C)C1(C)C (stereo partly drawn) [oleanolic acid acetate, 4aS,6aR,6aS,6bR,8aR,10S,12aR,14bS-10-hydroxy-2,2,6a,6b,9,9,12a-heptamethyl-1,3,4,5,6,6a,7,8,8a,10,11,12,13,14b-tetradecahydropicene-4a-carboxylic acid acetate] | almost no cytotoxicity | 81 | 43 | higher cell survival rate than that of oleanolic acid | 44 | decreased | decreased | decreased | decreased | decreased | decreased | decreased | concentration-dependently less than that of oleanolic acid
